# Measured values: patent US10377753B2, “Substituted 4-azaindoles and their use as GluN2B receptor modulators” (Janssen Pharmaceutica NV, priority 2015, dated 2019)
# Where a name gives a salt, the structure may show the parent alone.
# Molecular target: cloned human NR1/NR2B ion channels (Homo sapiens (Human), UniProt Q05586+Q13224)
# Experiment: HNR2BC: effects of test articles on cloned human NR1/NR2B ion channels expressed in mammalian cells (FLIPR calcium flux)
# Format: cell-based
# Details: cloned human NR1/NR2B ion channels, Table 5
# In short: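 In a stable Tet-On-induced cell line expressing human GluN1/GluN2B, Calcium 5-loaded cells were preincubated 5 min with compound, then stimulated 5 min with glutamate at ~EC80 plus 10 μM glycine, in pH 7.4 HEPES buffer. FLIPR calcium fluorescence was normalized to control wells.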
# cloned human NR1/NR2B ion channels, sequence (Q13224 27-1484, other chains not shown): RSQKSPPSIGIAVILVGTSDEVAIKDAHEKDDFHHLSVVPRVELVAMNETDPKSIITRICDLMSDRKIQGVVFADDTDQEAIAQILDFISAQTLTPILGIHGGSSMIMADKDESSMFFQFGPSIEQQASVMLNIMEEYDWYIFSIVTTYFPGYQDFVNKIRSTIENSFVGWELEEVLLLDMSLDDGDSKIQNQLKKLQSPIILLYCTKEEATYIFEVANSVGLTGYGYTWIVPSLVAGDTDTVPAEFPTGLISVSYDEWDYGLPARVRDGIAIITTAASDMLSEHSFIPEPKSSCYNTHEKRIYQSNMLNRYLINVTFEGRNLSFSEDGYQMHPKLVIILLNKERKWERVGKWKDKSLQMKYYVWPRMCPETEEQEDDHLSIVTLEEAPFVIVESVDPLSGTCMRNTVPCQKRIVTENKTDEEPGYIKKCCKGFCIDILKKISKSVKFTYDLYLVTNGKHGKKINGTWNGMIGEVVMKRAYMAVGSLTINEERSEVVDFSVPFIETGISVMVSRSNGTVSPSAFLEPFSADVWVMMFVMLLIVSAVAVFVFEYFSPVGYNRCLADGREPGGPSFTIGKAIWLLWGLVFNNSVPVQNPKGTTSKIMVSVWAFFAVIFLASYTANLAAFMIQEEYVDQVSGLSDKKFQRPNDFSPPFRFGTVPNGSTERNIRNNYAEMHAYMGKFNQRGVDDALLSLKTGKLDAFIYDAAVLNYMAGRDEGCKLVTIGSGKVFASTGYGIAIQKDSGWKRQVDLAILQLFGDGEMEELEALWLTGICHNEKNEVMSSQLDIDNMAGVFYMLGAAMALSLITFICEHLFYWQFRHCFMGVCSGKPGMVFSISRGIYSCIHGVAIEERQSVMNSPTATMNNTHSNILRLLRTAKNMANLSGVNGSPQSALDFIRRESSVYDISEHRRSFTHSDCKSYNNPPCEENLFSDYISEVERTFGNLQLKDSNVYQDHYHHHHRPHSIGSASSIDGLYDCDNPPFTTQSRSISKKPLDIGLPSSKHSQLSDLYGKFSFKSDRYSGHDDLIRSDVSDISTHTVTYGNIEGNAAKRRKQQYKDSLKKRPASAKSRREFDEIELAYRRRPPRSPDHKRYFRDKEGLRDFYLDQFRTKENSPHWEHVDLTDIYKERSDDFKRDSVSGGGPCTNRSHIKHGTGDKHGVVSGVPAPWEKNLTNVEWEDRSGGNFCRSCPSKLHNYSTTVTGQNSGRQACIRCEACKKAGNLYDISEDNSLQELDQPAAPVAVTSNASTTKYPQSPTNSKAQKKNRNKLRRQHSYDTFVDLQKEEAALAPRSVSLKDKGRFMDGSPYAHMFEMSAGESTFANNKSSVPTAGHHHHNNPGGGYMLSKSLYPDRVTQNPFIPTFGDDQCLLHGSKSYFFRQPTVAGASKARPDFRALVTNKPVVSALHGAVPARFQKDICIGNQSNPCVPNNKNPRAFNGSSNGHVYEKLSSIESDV
row,SMILES,IC50 [nM]
1,"CN(C)C(=O)Cn1cc(F)c2ncc(-c3cccs3)cc21 [Example 387, 2-[3-Fluoro-6-(2-thienyl)pyrrolo[3,2-b]pyridin-1-yl]-N,N-dimethyl-acetamide]",63.1
2,"CCc1ccc(-c2cnc3ccn(CC(=O)N(C)C)c3c2)s1 [Example 388, 2-[6-(5-Ethyl-2-thienyl)pyrrolo[3,2-b]pyridin-1-yl]-N,N-dimethyl-acetamide trifluoroacetate salt]",794
3,"O=C(Cn1cc(F)c2ncc(-c3cccs3)cc21)N1CCC1 [Example 389, 1-(Azetidin-1-yl)-2-[3-fluoro-6-(2-thienyl)pyrrolo[3,2-b]pyridin-1-yl]ethanone trifluoroacetate salt]",158
4,"Cc1ccc(-c2cnc3c(F)cn(CC(=O)N(C)C)c3c2)s1 [Example 390, 2-[3-Fluoro-6-(5-methyl-2-thienyl)pyrrolo[3,2-b]pyridin-1-yl]-N,N-dimethyl-acetamide]",316
5,"CN(C)C(=O)Cn1ccc2ncc(-c3cc(Cl)cs3)cc21 [Example 391, 2-[6-(4-Chloro-2-thienyl)pyrrolo[3,2-b]pyridin-1-yl]-N,N-dimethyl-acetamide trifluoroacetate salt]",50.1
6,"CCc1ccc(-c2cnc3ccn(CC(=O)N4CCC4)c3c2)s1 [Example 392, 1-(Azetidin-1-yl)-2-[6-(5-ethyl-2-thienyl)pyrrolo[3,2-b]pyridin-1-yl]ethanone trifluoroacetate salt]",63.1
7,"CCc1ccc(-c2cnc3c(F)cn(CC(=O)N(C)C)c3c2)s1 [Example 393, 2-[6-(5-Ethyl-2-thienyl)-3-fluoro-pyrrolo[3,2-b]pyridin-1-yl]-N,N-dimethyl-acetamide]",126
8,"O=C(Cn1ccc2ncc(-c3cc(Cl)cs3)cc21)N1CCC1 [Example 394, 1-(Azetidin-1-yl)-2-[6-(4-chloro-2-thienyl)pyrrolo[3,2-b]pyridin-1-yl]ethanone trifluoroacetate salt]",158
9,"O=C(Cn1cc(F)c2ncc(-c3cccs3)cc21)N1CC(F)C1 [Example 395, 1-(3-Fluoroazetidin-1-yl)-2-[3-fluoro-6-(2-thienyl)pyrrolo[3,2-b]pyridin-1-yl]ethanone trifluoroacetate salt]",50.1
10,"CN(C)C(=O)Cn1cc(F)c2ncc(-c3cc(Cl)cs3)cc21 [Example 396, 2-[6-(4-Chloro-2-thienyl)-3-fluoro-pyrrolo[3,2-b]pyridin-1-yl]-N,N-dimethyl-acetamide]",501
11,"O=C(Cn1cc(F)c2ncc(-c3cc(Cl)cs3)cc21)N1CCC1 [Example 397, 1-(Azetidin-1-yl)-2-[6-(4-chloro-2-thienyl)-3-fluoro-pyrrolo[3,2-b]pyridin-1-yl]ethanone trifluoroacetate salt]",50.1
12,"CCc1ccc(-c2cnc3c(F)cn(CC(=O)N4CC(F)C4)c3c2)s1 [Example 398, 2-[6-(5-Ethyl-2-thienyl)-3-fluoro-pyrrolo[3,2-b]pyridin-1-yl]-1-(3-fluoroazetidin-1-yl)ethanone trifluoroacetate salt]",39.8
13,"O=C(Cn1ccc2ncc(-c3cccs3)cc21)N1CCC1 [Example 399, 1-(Azetidin-1-yl)-2-[6-(2-thienyl)pyrrolo[3,2-b]pyridin-1-yl]ethanone]",158
14,"CN(C)C(=O)Cn1ccc2ncc(-c3cccs3)cc21 [Example 400, N,N-Dimethyl-2-[6-(2-thienyl)pyrrolo[3,2-b]pyridin-1-yl]acetamide]",501
15,"CCc1ccc(-c2cnc3c(F)cn(CC(=O)N4CCC4)c3c2)s1 [Example 401, 1-(Azetidin-1-yl)-2-[6-(5-ethyl-2-thienyl)-3-fluoro-pyrrolo[3,2-b]pyridin-1-yl]ethanone]",631
16,"Cc1ccc(-c2cnc3c(F)cn(CC(=O)N4CC(F)C4)c3c2)s1 [Example 402, 1-(3-Fluoroazetidin-1-yl)-2-[3-fluoro-6-(5-methyl-2-thienyl)pyrrolo[3,2-b]pyridin-1-yl]ethanone trifluoroacetate salt]",251
17,"O=C(Cn1ccc2ncc(-c3sccc3Cl)cc21)N1CCC1 [Example 403, 1-(Azetidin-1-yl)-2-[6-(3-chloro-2-thienyl)pyrrolo[3,2-b]pyridin-1-yl]ethanone]",100
18,"Cc1ncc(-c2cnc3ccn(CC(=O)N4CCC4)c3c2)s1 [Example 404, 1-(Azetidin-1-yl)-2-[6-(2-methylthiazol-5-yl)pyrrolo[3,2-b]pyridin-1-yl]ethanone]",31.6
19,"O=C(Cn1ccc2ncc(-c3cncs3)cc21)N1CCC1 [Example 405, 1-(Azetidin-1-yl)-2-(6-thiazol-5-ylpyrrolo[3,2-b]pyridin-1-yl)ethanone]",10000
20,"Cc1csc(-c2cnc3c(Cl)cn(CC(=O)N4CCC4)c3c2)c1 [Example 407, 1-(Azetidin-1-yl)-2-[3-chloro-6-(4-methyl-2-thienyl)pyrrolo[3,2-b]pyridin-1-yl]ethanone]",6310
21,"CCc1ccc(-c2cnc3c(Cl)cn(CC(=O)N4CCC4)c3c2)s1 [Example 408, 1-(Azetidin-1-yl)-2-[3-chloro-6-(5-ethyl-2-thienyl)pyrrolo[3,2-b]pyridin-1-yl]ethanone]",39.8

row,SMILES,IC50 [nM]
1,"O=C(Cn1cc(Cl)c2ncc(-c3cccs3)cc21)N1CCC1 [Example 409, 1-(Azetidin-1-yl)-2-[3-chloro-6-(2-thienyl)pyrrolo[3,2-b]pyridin-1-yl]ethanone]",200
2,"Cc1ccc(-c2cnc3c(Cl)cn(CC(=O)N4CCC4)c3c2)s1 [Example 410, 1-(Azetidin-1-yl)-2-[3-chloro-6-(5-methyl-2-thienyl)pyrrolo[3,2-b]pyridin-1-yl]ethanone]",316
3,"CN(CC(F)(F)F)C(=O)Cn1ccc2ncc(-c3ccc(F)cc3)cc21 [Example 411, 2-[6-(4-Fluorophenyl)pyrrolo[3,2-b]pyridin-1-yl]-N-methyl-N-(2,2,2-trifluoroethyl)acetamide]",25.1
4,"Cc1ccc(-c2cnc3c(Cl)cn(CC(=O)N4CC(F)C4)c3c2)s1 [Example 412, 2-[3-Chloro-6-(5-methyl-2-thienyl)pyrrolo[3,2-b]pyridin-1-yl]-1-(3-fluoroazetidin-1-yl)ethanone]",7940
5,"O=C(Cn1cc(Cl)c2ncc(-c3ccc(Cl)s3)cc21)N1CC(F)C1 [Example 413, 2-[3-Chloro-6-(5-chloro-2-thienyl)pyrrolo[3,2-b]pyridin-1-yl]-1-(3-fluoroazetidin-1-yl)ethanone]",50.1
6,"CN(C)C(=O)Cn1cc(Cl)c2ncc(-c3cc(Cl)cs3)cc21 [Example 414, 2-[3-Chloro-6-(4-chloro-2-thienyl)pyrrolo[3,2-b]pyridin-1-yl]-N,N-dimethyl-acetamide]",39.8
7,"Cc1cc(-c2cnc3ccn(CC(=O)N(C)CC(F)(F)F)c3c2)ccc1F [Example 415, 2-[6-(4-Fluoro-3-methyl-phenyl)pyrrolo[3,2-b]pyridin-1-yl]-N-methyl-N-(2,2,2-trifluoroethyl)acetamide]",63.1
8,"Cc1csc(-c2cnc3c(Cl)cn(CC(=O)N4CC(F)C4)c3c2)c1 [Example 416, 2-[3-Chloro-6-(4-methyl-2-thienyl)pyrrolo[3,2-b]pyridin-1-yl]-1-(3-fluoroazetidin-1-yl)ethanone]",2510
9,"O=C(Cn1cc(Cl)c2ncc(-c3cccs3)cc21)N1CC(F)C1 [Example 417, 2-[3-Chloro-6-(2-thienyl)pyrrolo[3,2-b]pyridin-1-yl]-1-(3-fluoroazetidin-1-yl)ethanone]",63.1
10,"O=C(Cn1cc(Cl)c2ncc(-c3cc(Cl)cs3)cc21)N1CC(F)C1 [Example 418, 2-[3-Chloro-6-(4-chloro-2-thienyl)pyrrolo[3,2-b]pyridin-1-yl]-1-(3-fluoroazetidin-1-yl)ethanone]",501
11,"CCN(C)C(=O)Cn1ccc2ncc(-c3ccc(F)cc3)cc21 [Example 419, N-Ethyl-2-[6-(4-fluorophenyl)pyrrolo[3,2-b]pyridin-1-yl]-N-methyl-acetamide]",63.1
12,"CN(C)C(=O)Cn1cc(Cl)c2ncc(-c3cccs3)cc21 [Example 420, 2-[3-Chloro-6-(2-thienyl)pyrrolo[3,2-b]pyridin-1-yl]-N,N-dimethyl-acetamide]",631
13,"CCc1ccc(-c2cnc3c(Cl)cn(CC(=O)N(C)C)c3c2)s1 [Example 421, 2-[3-Chloro-6-(5-ethyl-2-thienyl)pyrrolo[3,2-b]pyridin-1-yl]-N,N-dimethyl-acetamide]",631
14,"O=C(Cn1cc(Cl)c2ncc(-c3cc(Cl)cs3)cc21)N1CCC1 [Example 422, 1-(Azetidin-1-yl)-2-[3-chloro-6-(4-chloro-2-thienyl)pyrrolo[3,2-b]pyridin-1-yl]ethanone]",200
15,"CN(C)C(=O)Cn1cc(Cl)c2ncc(-c3ccc(Cl)s3)cc21 [Example 423, 2-[3-Chloro-6-(5-chloro-2-thienyl)pyrrolo[3,2-b]pyridin-1-yl]-N,N-dimethyl-acetamide]",39.8
16,"CCc1ccc(-c2cnc3c(Cl)cn(CC(=O)N4CC(F)C4)c3c2)s1 [Example 424, 2-[3-Chloro-6-(5-ethyl-2-thienyl)pyrrolo[3,2-b]pyridin-1-yl]-1-(3-fluoroazetidin-1-yl)ethanone]",31.6
17,"CN(C)C(=O)Cn1ccc2ncc(-c3cccc(C(F)(F)F)c3F)cc21 [Example 425, 2-[6-[2-Fluoro-3-(trifluoromethyl)phenyl]pyrrolo[3,2-b]pyridin-1-yl]-N,N-dimethyl-acetamide]",316
18,"Cc1cc(-c2cnc3ccn(CC(=O)N(C)C)c3c2)c(C)s1 [Example 427, 2-[6-(2,5-Dimethyl-3-thienyl)pyrrolo[3,2-b]pyridin-1-yl]-N,N-dimethyl-acetamide]",31.6
19,"Cc1sc(C)c(-c2cnc3ccn(CC(=O)N(C)C)c3c2)c1C [Example 428, N,N-Dimethyl-2-[6-(2,4,5-trimethyl-3-thienyl)pyrrolo[3,2-b]pyridin-1-yl]acetamide]",100
20,"CN(C)C(=O)Cn1ccc2ncc(-c3ccc(F)cc3)cc21 [Example 430, 2-[6-(4-Fluorophenyl)pyrrolo[3,2-b]pyridin-1-yl]-N,N-dimethyl-acetamide]",63.1
